Reference: PMC3914206

Tests used:
Assay type in all cases: binding
Set-up in all cases: KINOMEscan: ABL1(F317L)-phosphorylated / KINOMEscan: ABL1(H396P)-nonphosphorylated / KINOMEscan: ABL1(H396P)-phosphorylated / KINOMEscan: ABL1(M351T)-phosphorylated / KINOMEscan: ABL1(T315I)-phosphorylated / KINOMEscan: ABL1-nonphosphorylated / KINOMEscan: ABL1-phosphorylated / KINOMEscan: ACVR2A / KINOMEscan: ACVR2B / KINOMEscan: ADCK3 / KINOMEscan: ADCK4 / KINOMEscan: AKT1 / KINOMEscan: AKT3 / KINOMEscan: ALK / KINOMEscan: ARK5 / KINOMEscan: AURKA / KINOMEscan: AURKC / KINOMEscan: BIKE / KINOMEscan: BMPR1A / KINOMEscan: BMPR1B / KINOMEscan: BMX / KINOMEscan: BRK / KINOMEscan: BRSK1 / KINOMEscan: BRSK2 / KINOMEscan: CAMK1 / KINOMEscan: CAMK1D / KINOMEscan: CAMK1G / KINOMEscan: CAMK2A / KINOMEscan: CAMK2B / KINOMEscan: AAK1 / KINOMEscan: CAMK2D / KINOMEscan: CAMK2G / KINOMEscan: ABL1(F317I)-nonphosphorylated / KINOMEscan: ABL1(F317I)-phosphorylated / KINOMEscan: ABL1(F317L)-nonphosphorylated: unit: % Ctrl
panel of 442 kinases [1] = target: T1, panel of 442 kinases (Homo sapiens, UniProt P11309); conditions: Compound Concentration 10 µM
T1 construct: purchased KINOMEscan
T1 sequence (P11309 whole entry): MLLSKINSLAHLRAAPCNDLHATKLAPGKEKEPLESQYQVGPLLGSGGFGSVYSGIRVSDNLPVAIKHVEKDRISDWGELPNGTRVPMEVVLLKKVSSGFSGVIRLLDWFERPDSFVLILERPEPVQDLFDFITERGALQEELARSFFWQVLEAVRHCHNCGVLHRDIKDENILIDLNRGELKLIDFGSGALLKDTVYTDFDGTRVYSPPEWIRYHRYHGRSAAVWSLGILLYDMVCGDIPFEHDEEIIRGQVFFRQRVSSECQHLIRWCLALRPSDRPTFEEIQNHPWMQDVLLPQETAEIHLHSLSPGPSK
Description: (§1) We assessed the selectivity of members of this scaffold using the KINOMEscan methodology across a near comprehensive panel of 442 kinases [[18,27]].

panel of 442 kinases [2] = target: T2, panel of 442 kinases (Homo sapiens, UniProt P42336); conditions: Compound Concentration 10 µM
T2 construct: purchased KINOMEscan
T2 sequence (P42336 whole entry): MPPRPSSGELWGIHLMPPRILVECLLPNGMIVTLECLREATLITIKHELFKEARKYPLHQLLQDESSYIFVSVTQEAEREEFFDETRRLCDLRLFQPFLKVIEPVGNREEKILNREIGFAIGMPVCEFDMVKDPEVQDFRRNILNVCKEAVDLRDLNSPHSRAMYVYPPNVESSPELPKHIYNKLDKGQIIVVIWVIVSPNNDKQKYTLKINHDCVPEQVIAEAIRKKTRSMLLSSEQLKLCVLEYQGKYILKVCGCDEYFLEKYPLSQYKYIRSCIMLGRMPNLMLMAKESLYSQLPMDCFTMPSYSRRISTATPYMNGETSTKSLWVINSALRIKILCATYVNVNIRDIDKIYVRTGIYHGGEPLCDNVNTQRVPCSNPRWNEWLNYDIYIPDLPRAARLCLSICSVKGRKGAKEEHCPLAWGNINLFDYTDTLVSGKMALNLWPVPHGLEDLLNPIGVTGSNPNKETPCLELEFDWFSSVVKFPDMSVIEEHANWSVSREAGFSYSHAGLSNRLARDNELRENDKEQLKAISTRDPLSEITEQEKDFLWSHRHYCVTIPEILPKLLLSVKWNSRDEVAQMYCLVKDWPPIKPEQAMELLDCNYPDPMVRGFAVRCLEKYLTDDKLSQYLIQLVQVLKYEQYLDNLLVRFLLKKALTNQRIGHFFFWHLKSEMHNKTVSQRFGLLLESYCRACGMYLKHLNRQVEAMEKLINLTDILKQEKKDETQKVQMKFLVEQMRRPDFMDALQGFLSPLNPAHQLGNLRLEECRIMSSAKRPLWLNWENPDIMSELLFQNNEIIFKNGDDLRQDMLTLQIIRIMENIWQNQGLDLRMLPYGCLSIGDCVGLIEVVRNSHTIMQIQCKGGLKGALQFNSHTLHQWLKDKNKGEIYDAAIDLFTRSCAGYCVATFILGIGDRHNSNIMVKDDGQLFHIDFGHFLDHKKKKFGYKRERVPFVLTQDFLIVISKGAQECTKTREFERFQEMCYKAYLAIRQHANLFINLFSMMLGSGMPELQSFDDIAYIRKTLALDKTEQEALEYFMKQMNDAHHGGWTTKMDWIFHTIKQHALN
Description: as §1

panel of 442 kinases [3] = target: T3, panel of 442 kinases (Homo sapiens, UniProt Q86UE8); conditions: kinase TLK2; compound concentration 10 µM
T3 construct: purchased KINOMEscan
T3 sequence (Q86UE8 whole entry): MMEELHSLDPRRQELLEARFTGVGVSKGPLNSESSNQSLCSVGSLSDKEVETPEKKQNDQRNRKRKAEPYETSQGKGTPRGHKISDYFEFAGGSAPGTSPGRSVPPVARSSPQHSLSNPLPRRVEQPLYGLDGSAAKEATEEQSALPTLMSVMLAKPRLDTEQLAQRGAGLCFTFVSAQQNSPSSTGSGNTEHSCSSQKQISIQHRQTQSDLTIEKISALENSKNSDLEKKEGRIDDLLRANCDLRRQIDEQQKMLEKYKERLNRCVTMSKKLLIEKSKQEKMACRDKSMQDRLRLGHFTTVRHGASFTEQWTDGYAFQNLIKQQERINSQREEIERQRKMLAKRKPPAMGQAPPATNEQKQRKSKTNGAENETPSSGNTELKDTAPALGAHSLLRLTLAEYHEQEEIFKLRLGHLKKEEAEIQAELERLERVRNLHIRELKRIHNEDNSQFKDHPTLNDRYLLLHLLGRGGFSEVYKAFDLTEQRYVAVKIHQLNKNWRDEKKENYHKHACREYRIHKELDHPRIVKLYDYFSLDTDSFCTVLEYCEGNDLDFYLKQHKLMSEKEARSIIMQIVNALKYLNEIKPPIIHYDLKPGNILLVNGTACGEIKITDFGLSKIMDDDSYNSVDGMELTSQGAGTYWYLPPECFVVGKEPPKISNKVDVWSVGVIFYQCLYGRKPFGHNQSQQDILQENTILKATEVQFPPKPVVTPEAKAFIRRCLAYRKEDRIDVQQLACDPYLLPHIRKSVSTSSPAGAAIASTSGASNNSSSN
Description: as §1

panel of 442 kinases [4] = target: T4, panel of 442 kinases (Homo sapiens, UniProt Q9NSY1); conditions: Compound Concentration 10 µM
T4 construct: purchased KINOMEscan
T4 sequence (Q9NSY1 whole entry): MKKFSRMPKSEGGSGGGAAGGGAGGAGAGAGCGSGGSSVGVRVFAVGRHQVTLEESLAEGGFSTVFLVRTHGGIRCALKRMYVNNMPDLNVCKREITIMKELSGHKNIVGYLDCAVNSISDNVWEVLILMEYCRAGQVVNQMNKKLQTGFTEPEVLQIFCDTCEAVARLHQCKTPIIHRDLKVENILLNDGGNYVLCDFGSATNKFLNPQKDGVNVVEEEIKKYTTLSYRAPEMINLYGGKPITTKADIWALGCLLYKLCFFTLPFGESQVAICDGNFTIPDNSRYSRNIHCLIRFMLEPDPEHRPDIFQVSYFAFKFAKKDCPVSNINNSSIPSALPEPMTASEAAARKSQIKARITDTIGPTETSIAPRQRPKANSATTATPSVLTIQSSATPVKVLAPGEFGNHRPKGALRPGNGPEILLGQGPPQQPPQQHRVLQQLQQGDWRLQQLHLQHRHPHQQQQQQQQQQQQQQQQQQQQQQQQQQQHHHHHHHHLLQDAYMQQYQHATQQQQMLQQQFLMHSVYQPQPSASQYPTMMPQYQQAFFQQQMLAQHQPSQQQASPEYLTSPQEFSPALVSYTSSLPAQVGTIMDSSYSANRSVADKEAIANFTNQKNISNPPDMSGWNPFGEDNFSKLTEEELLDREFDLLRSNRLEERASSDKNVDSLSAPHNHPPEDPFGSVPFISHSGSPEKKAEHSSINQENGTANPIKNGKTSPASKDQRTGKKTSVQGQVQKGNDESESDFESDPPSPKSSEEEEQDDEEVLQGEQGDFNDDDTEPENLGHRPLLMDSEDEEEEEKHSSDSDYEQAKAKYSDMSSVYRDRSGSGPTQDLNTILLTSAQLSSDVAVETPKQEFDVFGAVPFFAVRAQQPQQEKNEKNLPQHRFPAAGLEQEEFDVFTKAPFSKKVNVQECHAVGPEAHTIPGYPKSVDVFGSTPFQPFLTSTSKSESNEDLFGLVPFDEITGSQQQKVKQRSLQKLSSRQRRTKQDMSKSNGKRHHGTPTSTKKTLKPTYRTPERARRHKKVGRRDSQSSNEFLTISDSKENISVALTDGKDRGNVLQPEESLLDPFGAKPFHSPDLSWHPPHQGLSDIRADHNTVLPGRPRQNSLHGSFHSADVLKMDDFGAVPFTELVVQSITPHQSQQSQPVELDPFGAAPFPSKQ
Description: as §1

COc1cc(C(=O)N2CCC(N3CCN(C)CC3)CC2)ccc1Nc1ncc2c(n1)N(C)c1ccccc1C(=O)N2C [15 (LRRK2-IN-1)]
KINOMEscan: PIM1 (panel of 442 kinases [1]): 100
KINOMEscan: PIK3CA (panel of 442 kinases [2]): 74
% Ctrl, TLK2 (panel of 442 kinases [3]): 99 % Ctrl
KINOMEscan: BIKE (panel of 442 kinases [4]): 100

COc1cc(C(=O)N2CCC(N3CCN(C)CC3)CC2)ccc1Nc1ncc2c(n1)N1CCc3cccc(c31)C(=O)N2C [Compound 24]
% Ctrl, TLK2 (panel of 442 kinases [3]): 98 % Ctrl
KINOMEscan: BIKE (panel of 442 kinases [4]): 73

COc1cc(C(=O)N2CCC(N3CCN(C)CC3)CC2)ccc1Nc1ncc2c(n1)N(C1CCCC1)c1ccccc1C(=O)N2C [Compound 25, 11-cyclopentyl-2-((2-methoxy-4-(4-(4-methylpiperazin-1-yl)piperidine-1-carbonyl)phenyl)amino)-5-methyl-5H-benzo[e]pyrimido[5,4-b][1,4]diazepin-6(11H)-one]
KINOMEscan: PIM1 (panel of 442 kinases [1]): 97
KINOMEscan: PIK3CA (panel of 442 kinases [2]): 100
% Ctrl, TLK2 (panel of 442 kinases [3]): 94 % Ctrl
KINOMEscan: BIKE (panel of 442 kinases [4]): 93

CCOc1cc(C(=O)N2CCC(N3CCN(C)CC3)CC2)ccc1Nc1ncc2c(n1)N(C1CCCC1)c1ccccc1C(=O)N2C [Compound 26]
KINOMEscan: PIM1 (panel of 442 kinases [1]): 100
KINOMEscan: PIK3CA (panel of 442 kinases [2]): 100
% Ctrl, TLK2 (panel of 442 kinases [3]): 100 % Ctrl
KINOMEscan: BIKE (panel of 442 kinases [4]): 100
